Experimental data published in a melting point compilation (Tetko et al.).

SMILES | melting point
CCOC(=O)C1=NN(c2ccccc2)C(=O)C1C(Cl)C1C(=O)N(c2ccccc2)N=C1C(=O)OCC (stereo not given) | 221 °C
O=C(O)c1cc2ccccc2[nH]1 | 206 °C
O=C(O)CCCCCCCCCCO | 65.5 °C
CN(CC(=O)O)C(=O)COC(=O)c1ccccc1 | 106 °C
CC(=O)C1(O)CCC2C3CCC4=CC(=O)CCC4(C)C3CCC21C (stereo not given) | 222 °C
Clc1ncnc2sc3c(c12)CCCCC3 | 64 to 65 °C
CCC(C)(CC)C(C)(C)C | -42.5 °C
NS(=O)(=O)C(F)(F)F | 118 °C
O=[N+]([O-])c1ccccc1C(F)(F)F | 32.5 °C
Cc1ccc(S(=O)(=O)OCC2COC(C)(C)O2)cc1 (stereo not given) | 29 to 31 °C
Cc1ccc(N=C=S)c([N+](=O)[O-])c1 | 65 °C
CNC(=O)Oc1cc(C)c(C)c(C)c1 | 110 °C
COc1c(C)c(C)c(OC)c2c1CC2Cl (stereo not given) | 113 °C
NNC(=O)c1cc2ccccc2cc1O | 206 to 208 °C
Cc1cc2c3c(c1)c(O)c(-c1ccccc1)c(=O)n3CCC2 | 215 to 218 °C
COc1ccc2c(c1)CC1(CCC(c3ccc(C(C)(C)C)cc3)CC1)C2=O (stereo not given) | 166 to 167 °C
Nc1ccc(-c2ccc(N)c(N)c2)cc1N | 176 °C
O=C1C=CC(=O)c2c(O)cccc21 | 162 °C
CC1(C)C=C(C(=O)O)C(C)(C)N1O | 202 °C
CSC(SC)=C(C#N)C(=O)c1ccc(Cl)cc1 | 82 to 84 °C
CC1CCC2(OC1)OC1CC3C4CCC5CC(O)CCC5(C)C4CCC3(C)C1C2C (stereo not given) | 206 °C
CC(C)NCC(O)COc1ccc(CCOCC2CC2)cc1 (stereo not given) | 71 °C
CN(C)c1ccc(C=CC#N)cc1 | 165 to 168 °C
O=C1C=C(NCc2ccncc2)C(=O)c2ccccc21 | 166 °C
CCC(C(N)=O)c1ccccc1 (stereo not given) | 86 °C
CC1=C/C(=N/NC(N)=O)C(C(C)C)CC1 (stereo not given) | 219 to 220 °C

SMILES | melting point
Cc1ccccc1-c1cc2ccccc2c(=O)o1 | 86 °C
NS(=O)(=O)c1ccc(SCCO)cc1 | 112 °C
Oc1ccc(/C=C/c2ccccc2)cc1 | 185 to 189 °C
FC(F)(F)C(F)(F)C(F)(F)C(F)(F)C(F)(F)C(F)(F)C(F)(F)F | -78 °C
CCCCCCCCCCCCCC(C)CC (stereo not given) | -15 °C
N#CCc1nc2ccccc2[nH]1 | 210 to 215 °C
OCC(F)(F)C(F)(F)C(F)(F)C(F)(F)C(F)(F)C(F)(F)C(F)(F)C(F)F | 58 to 60 °C
Cc1ccc(-c2csc(/C(C#N)=N/Nc3ccc(F)cc3)n2)cc1 | 196 °C
CC(C)(C)OC(=O)Nc1ccsc1 | 138 to 140 °C
CCN(CC)CCNc1ccc(C)c2sc3ccccc3c(=O)c12 | 64.5 °C
Cc1ccc(-c2nc(C(=O)O)cs2)cc1 | 170 °C
CC(=O)Nc1ccc(C)cc1C | 129 °C
CC(=O)n1c2ccccc2c2cc3ccccc3nc21 | 187 °C
CC(=O)OC(C(=O)c1ccccc1)c1ccccc1 (stereo not given) | 82 °C
CCOC(=O)Cc1nn(CC(N)=S)c(=O)c2ccccc12 | 150 to 152 °C
Cc1nn(C)c2sc(C(=O)Cl)cc12 | 165 to 167 °C
O=C(c1ccccc1)c1ccc(F)c(F)c1 | 56 °C
Nc1ccc(C(=O)NC(CCC(=O)O)C(=O)O)cc1 (stereo not given) | 173 °C
CN(C)c1ccc(C(Cl)=NO)cc1 | 165 °C
O=C(O)C1(O)c2ccccc2-c2ccc(Cl)cc21 (stereo not given) | 152 °C
O=C(O)c1ccc2ccccc2c1O | 199 to 205 °C
CC(=O)C1CCc2ccccc2C1=O (stereo not given) | 56 °C
CC(c1cc2ccccc2s1)N(O)C(N)=O (stereo not given) | 157 °C
O=C(O)C[C@H](NC(=O)OCC1c2ccccc2-c2ccccc21)c1ccccc1 | 187 °C
O=C(O)CCc1ccc(C(=O)O)cc1 | 290 °C
CC(=O)Nc1cccc2ccccc12 | 156 to 160 °C

SMILES | melting point
CCCCc1cc2ccccc2c(O)c1C(C)=O | 62 °C
CCN(CC)C(=O)SCc1ccccc1Cl | 9 °C
OCc1csc(-c2cccnc2)n1 | 120 to 121 °C
CC(C)C12CCC(C)(CC1)O2 | 1 °C
N#CC(=CNNc1ccccc1)c1ccccc1 | 155 to 156 °C
O=C1c2ccccc2C(=O)N1CCCCCCCCBr | 49 to 56 °C
CC1(C)OC2OC(CO)C3OC(C)(C)OC3C2O1 (stereo not given) | 120 to 122 °C
Cc1cncc(N2CCC(C(=O)O)CC2)n1 | 151 to 152 °C
FC(F)(F)CCBr | < 25 °C
COC(=O)[C@@H]1CCCN1C(=O)COC(=O)c1ccccc1 | 72.5 °C
O=C(O)CCCCCl | 18 °C
Brc1ccc(Oc2cc(Br)ccc2Br)c(Br)c1 | < 20 °C
c1ccc(C2=NN(c3ccccc3)CN2c2ccccc2)cc1 | 150 °C
OC1(C2(O)CCCCC2)CCCCC1 | 127 °C
CCC(C)(O)C(C)(C)C (stereo not given) | -6 °C
CCOc1c(Nc2ccc(C(=O)O)cc2)c(=O)c1=O | 300 °C
COc1ccc2cc(C(=O)c3cc4ccc(OC)cc4oc3=O)c(=O)oc2c1 | 271 °C
O=C(CCl)OCCOC(=O)CCl | 45.5 °C
CCC1COC(Cn2cncn2)(c2ccc(Cl)cc2Cl)O1 (stereo not given) | 84 °C
FC(F)(F)C(F)(Cl)C(F)(Cl)C(F)(F)F (stereo not given) | -68 °C
CC12CCC(O)CC1CCC1C2C(O)CC2(C)C(C3=CC(=O)OC3)CCC12O (stereo not given) | 280 °C
Cc1ccc2nc(C)c(C)nc2c1 | 93 °C
O=C(O)c1n[nH]c2ccc(Br)cc12 | 290 to 292 °C
COC(=O)Cc1nc(-c2ccccc2)sc1C | 42 to 44 °C
CC(=O)C1(O)CCC2(C)C(CCC3C4CCC(=O)C4(C)CCC32)C1 (stereo not given) | 211 to 212 °C
O=C(O)Cc1ccccc1Nc1c(Cl)cccc1Cl | 157 °C

SMILES | melting point
Nc1nnc(Cc2ccccc2)[nH]1 | 171 to 173 °C
O=C(OC1OC(=O)c2ccccc21)c1ccccc1 (stereo not given) | 133 to 135 °C
CCOC(=O)C1C(c2ccc(C)cc2)C(C(=O)OCC)C(O)(C(F)(F)F)NC1(O)C(F)(F)F (stereo not given) | 93 °C
CC(C)(C)OC(=O)c1cc2cc3c4c(c2oc1=O)CCCN4CCC3 | 171 °C
IC12CC3CC(CC(C3)C1)C2 | 75.5 °C
O=[N+]([O-])c1cc([N+](=O)[O-])c(Cl)cc1Cl | 101 °C
COc1cccc(OC)c1Br | 93 °C
CCN(CC)CCC#N | -64 °C
CCC1(C)C=C/C(=N\NS(=O)(=O)c2ccc(C)cc2)CC1 (stereo not given) | 159 to 169 °C
O=Cc1ccc(N2CCOCC2)cc1 | 66 °C
COc1cccc(C)c1[N+](=O)[O-] | 50 °C
O=C(c1ccccc1)c1nn(-c2ccccc2)c(-c2ccc([N+](=O)[O-])cc2)c1S(=O)(=O)c1ccccc1 | 116 °C
COC(=O)CC(=O)c1ccccc1Cl | 25 °C
Nc1ccc(C=CC(=O)O)cc1 | 122 °C
Cc1ccc(-c2csc(/C(C#N)=N\Nc3cc(Cl)ccc3Cl)n2)cc1 | 187 °C
FC(F)(F)c1cc(Cl)c2c(Cl)cc(Cl)cc2n1 | 111 to 114 °C
Cc1ccc2ccc(=O)oc2c1 | 128 °C
O=C1c2ccccc2S(=O)(=O)N1CCCCN1CCN(c2ncccn2)CC1 | 137 °C
Cc1ccncc1S(=O)(=O)O | 300 °C
O=C(O)c1cccnc1Sc1ccc(Cl)cc1 | 220 °C
CC(C)(C)c1csc(-c2ccc(C=O)cc2)n1 | 106 to 107 °C
NNc1ncnc2c1cnn2-c1ccccc1 | 190 to 191 °C
C/C=C/CCCCCCCC | -48.3 °C
C1=C[C@@H](OCc2ccccc2)[C@H](OCc2ccccc2)[C@@H](COCc2ccccc2)O1 | 54 to 57 °C
FC(F)(F)c1cc(Br)ccc1Br | 49 °C
COc1ccc(/C=C/C=O)cc1 | 55 to 60 °C

SMILES | melting point
CC12CC3(C)CC(C)(C1)CC(Br)(C2)C3 | 101 to 102 °C
C=C(C)CCCCCCC | -64 °C
COc1ccc(C=CNC=O)cc1 | 132 °C
CC(C)(C(=O)O)n1nc2ccccc2n1 | 152 °C
Fc1nc(Cl)c2[nH]cnc2n1 | 162 to 163 °C
COc1ccc2c3c1OC1C(O)CCC4C(C2)N(C)CCC341 (stereo not given) | 200 °C
CC1(C)OCC(CO)O1 (stereo not given) | -27 °C
COc1ccc(O)cc1C(C)(C)C | 48 °C
CCCOCOCCC | -97.3 °C
O=C(O)CCC(=O)c1cccs1 | 121 to 122 °C
Cc1csc(C(=O)Cl)c1Cl | 57 to 58 °C
Cc1cc(Sc2ccc(C(=O)O)cc2[N+](=O)[O-])c(C)cc1Cl | 243 to 248 °C
NC(=O)c1cnn(CCO)c1N | 239 °C
CCCCCCCOC(=O)CCC | -57.5 °C
COc1cc2c(cc1OC)C(CCO)NCC2 (stereo not given) | 103 to 107 °C
O=C(C=Cc1ccc(F)cc1)c1ccc(F)cc1 | 113 to 118 °C
N#CCc1nn(-c2ccccc2)c(N)c1C#N | 164 °C
COC(=O)C(C(=O)OC)=C1SC2=C(C(=O)c3ccccc3C2=O)N1c1ccccc1 | 239 °C
Cc1nccn1-c1ccccc1N | 132 to 134 °C
COc1cc([N+](=O)[O-])ccc1Br | 104 °C
CCSc1nnn[nH]1 | 88 to 89 °C
O=C(Cl)c1cccc2nsnc12 | 110 to 114 °C
O=C(C(=O)c1ccc(Cl)cc1)c1ccccc1 | 67 °C
N[C@@H](Cc1ccc(OCc2ccccc2)cc1)C(=O)O | 259 °C
COc1ccccc1C1(C)CCc2oc3ccc(C)cc3c2-c2oc(C)cc21 (stereo not given) | 179 °C
Cc1ccc(S(=O)(=O)Oc2c(C(=O)c3ccc(Cl)cc3Cl)c(C)nn2C)cc1 | 118 °C
